# Reference: ChEMBL document CHEMBL5500376, “Novel pyxinol amide derivatives bearing an aliphatic heterocycle as P-glycoprotein modulators for overcoming multidrug resistance” (Eur J Med Chem, 2024)
# Values joined by “and” are separate entries in the source; they are usually repeats but may differ in a detail not shown here. Identical values can stand only once.
# Key:
# [1] = Cytotoxicity against human KBV cells assessed as cell survival at 10 uM measured after 72 hrs incubation by MTT assay relative to control; type: functional; details: read-out: Activity
# [2] = Reversal of multi-drug resistance in human KVB cells assessed as increase in PTX-induced cytotoxicity by measuring cell survival at 5 uM measured after 72 hrs incubation in presence of 100 nM paclitaxel by MTT assay relative to control; type: functional, KBV
# [3] = Reversal of multi-drug resistance in human KVB cells assessed as increase in PTX-induced cytotoxicity by measuring cell survival at 10 uM measured after 72 hrs incubation in presence of 100 nM paclitaxel by MTT assay relative to control; type: functional, KBV
# [4] = Reversal fold, ratio of PTX IC50 to PTX IC50 in presence of test compound for reversal of multi-drug resistance in human KVB cells at 10 uM measured after 72 hrs by MTT assay; type: functional, KBV
# [5] = target: ATP-dependent translocase ABCB1 (Homo sapiens, UniProt P08183); test: Substrate activity at Pgp in human KVB cells assessed as intracellular accumulation measured after 4 hrs by LC-MS/MS analysis; type: cell-based; details: kbv
# Chain of ATP-dependent translocase ABCB1 (P08183 whole entry): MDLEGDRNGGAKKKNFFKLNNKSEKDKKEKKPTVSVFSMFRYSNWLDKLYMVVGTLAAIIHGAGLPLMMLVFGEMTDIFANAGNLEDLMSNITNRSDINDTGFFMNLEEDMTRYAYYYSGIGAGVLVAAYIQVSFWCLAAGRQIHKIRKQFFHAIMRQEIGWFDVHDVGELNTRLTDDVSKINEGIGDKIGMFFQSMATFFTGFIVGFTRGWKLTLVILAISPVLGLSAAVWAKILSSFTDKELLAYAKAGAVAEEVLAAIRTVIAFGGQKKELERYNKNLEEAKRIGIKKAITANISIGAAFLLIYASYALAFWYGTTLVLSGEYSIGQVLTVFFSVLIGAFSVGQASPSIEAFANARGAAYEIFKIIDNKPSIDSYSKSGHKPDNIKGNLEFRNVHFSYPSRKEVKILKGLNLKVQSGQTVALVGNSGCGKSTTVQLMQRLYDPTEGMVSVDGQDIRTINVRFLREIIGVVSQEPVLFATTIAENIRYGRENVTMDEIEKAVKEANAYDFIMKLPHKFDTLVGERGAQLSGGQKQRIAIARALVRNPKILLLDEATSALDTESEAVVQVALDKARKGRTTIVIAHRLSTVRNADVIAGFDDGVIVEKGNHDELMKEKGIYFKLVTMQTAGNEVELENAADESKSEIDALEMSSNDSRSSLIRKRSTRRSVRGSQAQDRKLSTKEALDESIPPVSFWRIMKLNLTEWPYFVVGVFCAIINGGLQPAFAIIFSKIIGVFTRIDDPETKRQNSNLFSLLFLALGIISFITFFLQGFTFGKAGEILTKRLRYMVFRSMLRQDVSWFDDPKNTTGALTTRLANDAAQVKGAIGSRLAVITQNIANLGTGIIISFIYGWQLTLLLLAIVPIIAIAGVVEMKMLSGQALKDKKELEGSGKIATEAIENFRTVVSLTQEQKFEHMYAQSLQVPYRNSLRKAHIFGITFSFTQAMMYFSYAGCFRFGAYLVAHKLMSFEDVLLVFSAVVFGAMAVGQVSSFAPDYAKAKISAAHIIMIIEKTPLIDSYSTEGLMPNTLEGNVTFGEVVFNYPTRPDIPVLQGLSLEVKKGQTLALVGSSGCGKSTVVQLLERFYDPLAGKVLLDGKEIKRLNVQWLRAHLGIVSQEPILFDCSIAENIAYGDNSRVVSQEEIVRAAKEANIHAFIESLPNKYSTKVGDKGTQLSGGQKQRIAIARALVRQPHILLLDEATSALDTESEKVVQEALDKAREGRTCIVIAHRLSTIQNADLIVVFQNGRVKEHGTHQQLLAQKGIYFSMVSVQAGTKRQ
SMILES,viability at 10 µM [1] [%],Activity [2] [%],Activity [3] [%],Ratio [4],Activity [5],"Ratio ([4]; 72 h, 10 µM)"
CC(C)(O)[C@H]1CC[C@@](C)([C@H]2CC[C@]3(C)[C@@H]2[C@H](O)C[C@@H]2[C@@]4(C)CC[C@H](NC(=O)[C@@H]5CCC(=O)N5)C(C)(C)[C@@H]4CC[C@]23C)O1,100,93,87,–,–,–
CC(C)(C)OC(=O)N1CCCC[C@@H]1C(=O)N[C@H]1CC[C@]2(C)[C@H]3C[C@@H](O)[C@@H]4[C@@H]([C@]5(C)CC[C@H](C(C)(C)O)O5)CC[C@@]4(C)[C@]3(C)CC[C@H]2C1(C)C,118,42,27,–,–,–
CC(C)(C)OC(=O)N1CC[C@@H](C(=O)N[C@H]2CC[C@]3(C)[C@H]4C[C@@H](O)[C@@H]5[C@@H]([C@]6(C)CC[C@H](C(C)(C)O)O6)CC[C@@]5(C)[C@]4(C)CC[C@H]3C2(C)C)C1,81,54,31,76,–,–
CC(C)(O)[C@H]1CC[C@@](C)([C@H]2CC[C@]3(C)[C@@H]2[C@H](O)C[C@@H]2[C@@]4(C)CC[C@H](NC(=O)[C@H]5CCC(=O)N5)C(C)(C)[C@@H]4CC[C@]23C)O1,92,93,87,–,–,–
CC(C)(O)[C@H]1CC[C@@](C)([C@H]2CC[C@]3(C)[C@@H]2[C@H](O)C[C@@H]2[C@@]4(C)CC[C@H](NC(=O)[C@H]5C[C@@H](O)CN5)C(C)(C)[C@@H]4CC[C@]23C)O1,98,95,98,–,–,–
CC(C)(C)OC(=O)N1CCC[C@H](C(=O)N[C@H]2CC[C@]3(C)[C@H]4C[C@@H](O)[C@@H]5[C@@H]([C@]6(C)CC[C@H](C(C)(C)O)O6)CC[C@@]5(C)[C@]4(C)CC[C@H]3C2(C)C)C1,93,76,47,–,–,–
CC(C)(C)OC(=O)N1CCC[C@@H]1C(=O)N[C@H]1CC[C@]2(C)[C@H]3C[C@@H](O)[C@@H]4[C@@H]([C@]5(C)CC[C@H](C(C)(C)O)O5)CC[C@@]4(C)[C@]3(C)CC[C@H]2C1(C)C,88,36,21,157.7,Active,–
CC(C)(O)[C@H]1CC[C@@](C)([C@H]2CC[C@]3(C)[C@@H]2[C@H](O)C[C@@H]2[C@@]4(C)CC[C@H](NC(=O)[C@H]5CCCCN5)C(C)(C)[C@@H]4CC[C@]23C)O1,99,56,28,–,–,89.1 and 106.3
CC(C)(C)OC(=O)N1CC[C@@H]1C(=O)N[C@H]1CC[C@]2(C)[C@H]3C[C@@H](O)[C@@H]4[C@@H]([C@]5(C)CC[C@H](C(C)(C)O)O5)CC[C@@]4(C)[C@]3(C)CC[C@H]2C1(C)C,99,47,27,100.1,–,–
CC(C)(C)OC(=O)N1CCOC[C@H]1C(=O)N[C@H]1CC[C@]2(C)[C@H]3C[C@@H](O)[C@@H]4[C@@H]([C@]5(C)CC[C@H](C(C)(C)O)O5)CC[C@@]4(C)[C@]3(C)CC[C@H]2C1(C)C,89,81,55,–,–,–
CC(C)(C)OC(=O)N1CCCC[C@H]1C(=O)N[C@H]1CC[C@]2(C)[C@H]3C[C@@H](O)[C@@H]4[C@@H]([C@]5(C)CC[C@H](C(C)(C)O)O5)CC[C@@]4(C)[C@]3(C)CC[C@H]2C1(C)C,102,61,26,66,–,–
C[S+](C)[O-] [DIMETHYL SULFOXIDE],100,100,100,–,–,–
CC1(C(=O)N[C@H]2CC[C@]3(C)[C@H]4C[C@@H](O)[C@@H]5[C@@H]([C@]6(C)CC[C@H](C(C)(C)O)O6)CC[C@@]5(C)[C@]4(C)CC[C@H]3C2(C)C)COC1,84,59,50,–,–,–
CC(C)(O)[C@H]1CC[C@@](C)([C@H]2CC[C@]3(C)[C@@H]2[C@H](O)C[C@@H]2[C@@]4(C)CC[C@H](NC(=O)[C@@H]5CCC(=O)O5)C(C)(C)[C@@H]4CC[C@]23C)O1,104,95,94,–,–,–
CC(C)(C)OC(=O)N1CC(F)(F)C[C@H]1C(=O)N[C@H]1CC[C@]2(C)[C@H]3C[C@@H](O)[C@@H]4[C@@H]([C@]5(C)CC[C@H](C(C)(C)O)O5)CC[C@@]4(C)[C@]3(C)CC[C@H]2C1(C)C,100,65,64,–,–,–
CC(C)(O)[C@H]1CC[C@@](C)([C@H]2CC[C@]3(C)[C@@H]2[C@H](O)C[C@@H]2[C@@]4(C)CC[C@H](NC(=O)CC5CNC5)C(C)(C)[C@@H]4CC[C@]23C)O1,96,95,90,–,–,–

SMILES,viability at 10 µM [1] [%],Activity [2] [%],Activity [3] [%],Ratio [4],Activity [5],"Ratio ([4]; 72 h, 10 µM)"
CC(C)(C)OC(=O)N1C[C@H](F)C[C@H]1C(=O)N[C@H]1CC[C@]2(C)[C@H]3C[C@@H](O)[C@@H]4[C@@H]([C@]5(C)CC[C@H](C(C)(C)O)O5)CC[C@@]4(C)[C@]3(C)CC[C@H]2C1(C)C,114,46,26,102.4,–,–
CC(C)(O)[C@H]1CC[C@@](C)([C@H]2CC[C@]3(C)[C@@H]2[C@H](O)C[C@@H]2[C@@]4(C)CC[C@H](NC(=O)[C@@H]5COCCN5)C(C)(C)[C@@H]4CC[C@]23C)O1,89,82,57,–,–,–
CC(C)(O)[C@H]1CC[C@@](C)([C@H]2CC[C@]3(C)[C@@H]2[C@H](O)C[C@@H]2[C@@]4(C)CC[C@H](NC(=O)[C@H]5CCN5)C(C)(C)[C@@H]4CC[C@]23C)O1,70,86,68,–,–,–
CC(C)(O)[C@H]1CC[C@@](C)([C@H]2CC[C@]3(C)[C@@H]2[C@H](O)C[C@@H]2[C@@]4(C)CC[C@H](NC(=O)[C@@H]5CC(F)(F)CN5)C(C)(C)[C@@H]4CC[C@]23C)O1,95,78,62,–,–,–
CC(C)(O)[C@H]1CC[C@@](C)([C@H]2CC[C@]3(C)[C@@H]2[C@H](O)C[C@@H]2[C@@]4(C)CC[C@H](NC(=O)[C@H]5CCCNC5)C(C)(C)[C@@H]4CC[C@]23C)O1,94,83,45,–,–,–
CC(C)(O)[C@H]1CC[C@@](C)([C@H]2CC[C@]3(C)[C@@H]2[C@H](O)C[C@@H]2[C@@]4(C)CC[C@H](NC(=O)[C@@H]5C[C@@H](F)CN5)C(C)(C)[C@@H]4CC[C@]23C)O1,99,78,66,–,–,–
CC(C)(O)[C@H]1CC[C@@](C)([C@H]2CC[C@]3(C)[C@@H]2[C@H](O)C[C@@H]2[C@@]4(C)CC[C@H](NC(=O)[C@H]5CCCN5)C(C)(C)[C@@H]4CC[C@]23C)O1,109,73,63,–,–,–
CC(C)(O)[C@H]1CC[C@@](C)([C@H]2CC[C@]3(C)[C@@H]2[C@H](O)C[C@@H]2[C@@]4(C)CC[C@H](NC(=O)[C@@H]5CCNC5)C(C)(C)[C@@H]4CC[C@]23C)O1,99,67,49,–,–,–
CC(C)(O)[C@H]1CC[C@@](C)([C@H]2CC[C@]3(C)[C@@H]2[C@H](O)C[C@@H]2[C@@]4(C)CC[C@H](O)C(C)(C)[C@@H]4CC[C@]23C)O1,–,–,–,–,Not Active,–
CC(=O)N1CCC[C@H]1C(=O)N[C@H]1CC[C@]2(C)[C@H]3C[C@@H](O)[C@@H]4[C@@H]([C@]5(C)CC[C@H](C(C)(C)O)O5)CC[C@@]4(C)[C@]3(C)CC[C@H]2C1(C)C,97,80,63,–,–,–
CC(C)(C)OC(=O)N1CC(C(=O)N[C@H]2CC[C@]3(C)[C@H]4C[C@@H](O)[C@@H]5[C@@H]([C@]6(C)CC[C@H](C(C)(C)O)O6)CC[C@@]5(C)[C@]4(C)CC[C@H]3C2(C)C)C1,91,80,54,–,–,–
CC(C)(O)[C@H]1CC[C@@](C)([C@H]2CC[C@]3(C)[C@@H]2[C@H](O)C[C@@H]2[C@@]4(C)CC[C@H](NC(=O)C5CNC5)C(C)(C)[C@@H]4CC[C@]23C)O1,97,76,61,–,–,–
CC(C)(C)OC(=O)N1C[C@H](O)C[C@H]1C(=O)N[C@H]1CC[C@]2(C)[C@H]3C[C@@H](O)[C@@H]4[C@@H]([C@]5(C)CC[C@H](C(C)(C)O)O5)CC[C@@]4(C)[C@]3(C)CC[C@H]2C1(C)C,105,90,93,–,–,–
CC(C)(O)[C@H]1CC[C@@](C)([C@H]2CC[C@]3(C)[C@@H]2[C@H](O)C[C@@H]2[C@@]4(C)CC[C@H](NC(=O)[C@@H]5CCCN5)C(C)(C)[C@@H]4CC[C@]23C)O1,100,38,30,65.1,Not Active,–
CC(C)(C)OC(=O)NCCCCCC(=O)N[C@H]1CC[C@]2(C)[C@H]3C[C@@H](O)[C@@H]4[C@@H]([C@]5(C)CC[C@H](C(C)(C)O)O5)CC[C@@]4(C)[C@]3(C)CC[C@H]2C1(C)C,–,–,–,–,Active,–
